Measured values from ChEMBL document CHEMBL3045551, “Synthesis and Acaricidal Activity of N-(1,3,4-Thiadiazol-2-yl)cyclopropanecarboxamides” (2003).

Columns and labels:
Assay type in all cases: functional
Tetranychus urticae [1] = assay: Acaricidal activity against Tetranychus urticae (two-spotted spider mite) assessed as mite mortality at 50 ppm relative to untreated control
Tetranychus urticae [2] = assay: Acaricidal activity against Tetranychus urticae (two-spotted spider mite) assessed as mite mortality at 12.5 ppm relative to untreated control
Tetranychus urticae [3] = assay: Acaricidal activity against Tetranychus urticae (two-spotted spider mite) assessed as mite mortality at 500 ppm relative to untreated control
Tetranychus urticae [4] = assay: Acaricidal activity against Tetranychus urticae (two-spotted spider mite) assessed as mite mortality at 200 ppm relative to untreated control

Row | Structure (SMILES) | mortality at 50 ppm (Tetranychus urticae [1]) [%] | mortality at 12.5 ppm (Tetranychus urticae [2]) [%] | mortality at 500 ppm (Tetranychus urticae [3]) [%] | mortality at 200 ppm (Tetranychus urticae [4]) [%]
1 | CC(C)C1(C(=O)Nc2nnc(C(F)(F)F)s2)CC1(Cl)Cl (stereo unspecified) | 30 | 30 | 80 | 80
2 | CCc1nnc(NC(=O)C2(C)CC2(Cl)Cl)s1 (stereo unspecified) |  |  | 0 | 
3 | CC1(C(=O)Nc2nnc(C(F)(F)C(F)(F)F)s2)CC1(Cl)Cl (stereo unspecified) | 100 | 30 | 100 | 100
4 | CC1(C(=O)Nc2nnc(C(F)(F)F)s2)CC1(Cl)Cl (stereo unspecified) | 100 | 30 | 100 | 100
5 | CC1(C(=O)Nc2nnc(C(F)(F)F)s2)CC1 |  |  | 0 | 
6 | Cc1nnc(NC(=O)C2(C)CC2(Cl)Cl)s1 (stereo unspecified) |  |  | 0 | 
7 | CC1(C(=O)Nc2nnc(C(F)(F)C(F)(F)C(F)(F)C(F)(F)F)s2)CC1(Cl)Cl (stereo unspecified) |  |  | 0 | 
8 | O=C(Nc1nnc(C(F)(F)F)s1)C1CC1(Cl)Cl (stereo unspecified) |  |  | 0 | 
9 | CCC1(C(=O)Nc2nnc(C(F)(F)F)s2)CC1(Cl)Cl (stereo unspecified) | 100 | 0 | 100 | 100
10 | CCCC1(C(=O)Nc2nnc(C(F)(F)F)s2)CC1(Cl)Cl (stereo unspecified) | 80 | 0 | 100 | 100
11 | CCCCC1(C(=O)Nc2nnc(C(F)(F)F)s2)CC1(Cl)Cl (stereo unspecified) |  |  | 80 | 30
12 | CC1(C(=O)Nc2nncs2)CC1(Cl)Cl (stereo unspecified) |  |  | 0 | 
13 | CC1(C(=O)Nc2nnc(C(F)(F)C(F)(F)C(F)(F)F)s2)CC1(Cl)Cl (stereo unspecified) | 100 | 80 | 100 | 100
14 | CC1(C(=O)Nc2nnc(C(F)(F)F)s2)CC1(Br)Br (stereo unspecified) | 30 | 0 | 100 | 100
